Test results as given in ChEMBL document CHEMBL1201862, “PubChem BioAssay data set” (2004).
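Where inhibition never reached the appropriate level, the endpoint shown equals the highest concentration tested. Otherwise, values were interpolated linearly from a five-concentration, 48-hour dose response in 96-well plates. Abbreviation: GI50, concentration required for 50% inhibition of growth.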 Active and inactive are the calls of the source. No stated cut-off is given here; in the data, active = GI50 up to about 1.1 µM and inactive = higher.

Assays:
Experiment in all cases: NCI tumour cell line growth inhibition, 48 h
SK-MEL-5 = system: SK-MEL-5
UACC-62 = system: UACC-62
HOP-62 = system: HOP-62
DLD-1 = system: DLD-1
KM12 = system: KM12
HL-60 = system: HL-60
SW-620 = system: SW-620
Malme-3M = system: Malme-3M
OVCAR-8 = system: OVCAR-8
NCI-H226 = system: NCI-H226
DMS-114 = system: DMS-114
SF-268 = system: SF-268
U-251 = system: U-251
RPMI-8226 = system: RPMI-8226
KM-20L2 = system: KM-20L2
SF-295 = system: SF-295
TK-10 = system: TK-10
HOP-92 = system: HOP-92
HOP-18 = system: HOP-18
LOX IMVI = system: LOX IMVI
M19-MEL = system: M19-MEL
OVCAR-4 = system: OVCAR-4
SK-OV-3 = system: SK-OV-3
OVCAR-5 = system: OVCAR-5
K562 = system: K562
786-0 = system: 786-0
OVCAR-3 = system: OVCAR-3
COLO 205 = system: COLO 205
SNB-19 = system: SNB-19
SK-MEL-28 = system: SK-MEL-28
HCT-116 = system: HCT-116
IGROV-1 = system: IGROV-1
RXF 631 = system: RXF 631
SN12C = system: SN12C
M14 = system: M14
NCI-H522 = system: NCI-H522
SF-539 = system: SF-539
CCRF-CEM = system: CCRF-CEM
DMS-273 = system: DMS-273
HT-29 = system: HT-29
EKVX = system: EKVX
NCI-H23 = system: NCI-H23
UO-31 = system: UO-31
NCI-H460 = system: NCI-H460
A498 = system: A498
LXFL 529 = system: LXFL 529
RXF 393 = system: RXF 393
HCC 2998 = system: HCC 2998
HCT-15 = system: HCT-15
A549 = system: A549
ACHN = system: ACHN
UACC-257 = system: UACC-257
CAKI-1 = system: CAKI-1
SNB-78 = system: SNB-78
SR = system: SR
XF498 = system: XF498
SNB-75 = system: SNB-75
SK-MEL-2 = system: SK-MEL-2
MOLT-4 = system: MOLT-4

Compound: O=C(C=P(c1ccccc1)(c1ccccc1)c1ccccc1)CC(=S)CC(=O)C=P(c1ccccc1)(c1ccccc1)c1ccccc1
- GI50 (SK-MEL-5): 2.81 µM (inactive)
- GI50 (UACC-62): 4.31 µM (inactive)
- GI50 (HOP-62): 8.04 µM (inactive)
- GI50 (DLD-1): 4.58 µM (inactive)
- GI50 (KM12): 3.81 µM (inactive)
- GI50 (HL-60): 1.98 µM (inactive)
- GI50 (SW-620): 4.29 µM (inactive)
- GI50 (Malme-3M): 5.01 µM (inactive)
- GI50 (OVCAR-8): 3.56 µM (inactive)
- GI50 (NCI-H226): 5.85 µM (inactive)
- GI50 (DMS-114): 3.41 µM (inactive)
- GI50 (SF-268): 5.19 µM (inactive)
- GI50 (U-251): 2.29 µM (inactive)
- GI50 (RPMI-8226): 2.24 µM (inactive)
- GI50 (KM-20L2): 4.29 µM (inactive)
- GI50 (SF-295): 3.16 µM (inactive)
- GI50 (TK-10): 7.96 µM (inactive)
- GI50 (HOP-92): 1.65 µM (inactive)
- GI50 (HOP-18): 2.59 µM (inactive)
- GI50 (LOX IMVI): 3.53 µM (inactive)
- GI50 (M19-MEL): 4.57 µM (inactive)
- GI50 (OVCAR-4): 7.5 µM (inactive)
- GI50 (SK-OV-3): 3.95 µM (inactive)
- GI50 (OVCAR-5): 18.2 µM (inactive)
- GI50 (K562): 2.47 µM (inactive)
- GI50 (786-0): 4.16 µM (inactive)
- GI50 (OVCAR-3): 2.61 µM (inactive)
- GI50 (COLO 205): 1.89 µM (inactive)
- GI50 (SNB-19): 4.33 µM (inactive)
- GI50 (SK-MEL-28): 8.22 µM (inactive)
- GI50 (HCT-116): 2.86 µM (inactive)
- GI50 (IGROV-1): 4.66 µM (inactive)
- GI50 (RXF 631): > 100 µM (inactive)
- GI50 (SN12C): 3.39 µM (inactive)
- GI50 (M14): 4.12 µM (inactive)
- GI50 (NCI-H522): 2.74 µM (inactive)
- GI50 (SF-539): 4.09 µM (inactive)
- GI50 (CCRF-CEM): 3.24 µM (inactive)
- GI50 (DMS-273): 2.88 µM (inactive)
- GI50 (HT-29): 4.14 µM (inactive)
- GI50 (EKVX): 21.6 µM (inactive)
- GI50 (NCI-H23): 3.14 µM (inactive)
- GI50 (UO-31): 29.3 µM (inactive)
- GI50 (NCI-H460): 4.36 µM (inactive)
- GI50 (A498): 4.14 µM (inactive)
- GI50 (LXFL 529): 2.77 µM (inactive)
- GI50 (RXF 393): 5.61 µM (inactive)
- GI50 (HCC 2998): 3.85 µM (inactive)
- GI50 (HCT-15): 15.3 µM
- GI50 (A549): 4.17 µM (inactive)
- GI50 (ACHN): 7.08 µM (inactive)
- GI50 (UACC-257): 3.15 µM (inactive)
- GI50 (CAKI-1): 16.2 µM (inactive)

Compound: CC[C@H]1[C@@H](C)C=C[C@@H](C)N1S(=O)(=O)c1ccc(C)cc1
- GI50 (SK-MEL-5): 92 µM (inactive)
- GI50 (UACC-62): 97.7 µM (inactive)
- GI50 (HOP-62): > 100 µM (inactive)
- GI50 (KM12): > 100 µM (inactive)
- GI50 (HL-60): 18.5 µM (inactive)
- GI50 (SW-620): > 100 µM (inactive)
- GI50 (Malme-3M): > 100 µM (inactive)
- GI50 (OVCAR-8): > 100 µM (inactive)
- GI50 (NCI-H226): > 100 µM (inactive)
- GI50 (DMS-114): 19.1 µM (inactive)
- GI50 (SF-268): 75 µM (inactive)
- GI50 (SNB-78): > 100 µM (inactive)
- GI50 (SR): 66.5 µM (inactive)
- GI50 (U-251): > 100 µM (inactive)
- GI50 (RPMI-8226): 34.1 µM (inactive)
- GI50 (KM-20L2): > 100 µM (inactive)
- GI50 (XF498): 14.1 µM (inactive)
- GI50 (SF-295): 95.9 µM (inactive)
- GI50 (SNB-75): > 100 µM (inactive)
- GI50 (LOX IMVI): > 100 µM (inactive)
- GI50 (M19-MEL): > 100 µM (inactive)
- GI50 (OVCAR-4): > 100 µM (inactive)
- GI50 (SK-OV-3): > 100 µM (inactive)
- GI50 (SK-MEL-2): 19.8 µM (inactive)
- GI50 (OVCAR-5): > 100 µM (inactive)
- GI50 (K562): 89.9 µM (inactive)
- GI50 (786-0): > 100 µM (inactive)
- GI50 (OVCAR-3): > 100 µM (inactive)
- GI50 (COLO 205): > 100 µM (inactive)
- GI50 (SNB-19): 0.693 µM (active)
- GI50 (SK-MEL-28): > 100 µM (inactive)
- GI50 (HCT-116): 51.6 µM (inactive)
- GI50 (RXF 631): 16.7 µM (inactive)
- GI50 (SN12C): 92.7 µM (inactive)
- GI50 (M14): > 100 µM (inactive)
- GI50 (NCI-H522): 30.3 µM (inactive)
- GI50 (SF-539): > 100 µM (inactive)
- GI50 (CCRF-CEM): > 100 µM (inactive)
- GI50 (DMS-273): > 100 µM (inactive)
- GI50 (HT-29): > 100 µM (inactive)
- GI50 (EKVX): > 100 µM (inactive)
- GI50 (NCI-H23): > 100 µM (inactive)
- GI50 (UO-31): 5.26 µM (inactive)
- GI50 (MOLT-4): 79.3 µM (inactive)
- GI50 (NCI-H460): > 10 µM (inactive)
- GI50 (A498): > 100 µM (inactive)
- GI50 (LXFL 529): 73.8 µM (inactive)
- GI50 (RXF 393): 48.6 µM (inactive)
- GI50 (HCT-15): 61.2 µM
- GI50 (A549): > 100 µM (inactive)
- GI50 (ACHN): 67 µM (inactive)
- GI50 (UACC-257): > 100 µM (inactive)
- GI50 (CAKI-1): > 100 µM (inactive)
